Data from patent EP4790048A1, “S1PR4 REGULATOR COMPOUND FOR AUTOIMMUNE DISEASE TREATMENT AND APPLICATION THEREOF” (Shengyuan Zetong (Shanghai) Pharmaceutical Co., Ltd, priority 2023, dated 2025).

What was measured:
hS1P1 = molecular target: T1, hS1P1 (Homo sapiens, UniProt P21453); test: Tango β-arrestin recruitment luciferase assay, Tango-hS1P1-CHO; format: cell-based; conditions: β-arrestin recruitment; 20 h drug treatment; top 45 µM, 9 serial 5-fold dilutions; positive control 1 µM BAF-312; read-out: Tango-hS1P1-CHO EC50
T1 construct: expressed in transfected cells; host or cells: CHO
Text: (§1) The Tango assay detects ligand-dependent GPCR activity through the interaction between β-arrestin and GPCRs. […] The NTEV fragment and the tetracycline transactivator (tTA), an artificial transcription factor, are fused at the C-terminus of the GPCR, while the CTEV fragment is fused to human β-arrestin 2. To enhance the stability of the interaction between GPCR and β-arrestin, a short sequence from the C-terminus of the human arginine vasopressin receptor 2 (V2 tail) is inserted between the GPCR and NTEV. The V2 tail contains multiple GRK phosphorylation sites, which strengthen β-arrestin binding upon phosphorylation. The CTEV fragment carries the stabile point mutation S219P and is truncated at residue 221 to remove the autoinhibitory C-terminal tail. Meanwhile, β-arrestin 2 is truncated to lack the entire C-terminal tail (residues 383-410 deleted). This truncation confers robust stimulus-dependent receptor desensitization, thereby improving detection sensitivity compared with wild-type β-arrestin 2. The UAS reporter construct consists of upstream activating sequence (UAS) elements, a minimal CMV promoter, and a tTA-dependent luciferase reporter gene. Therefore, constructing Tango cells requires the co-transfection of the above three plasmids into host cells. Upon GPCR activation and β-arrestin recruitment, the TEV enzyme at the β-arrestin terminus cleaves tTA from the GPCR C-terminus. The released tTA initiates tTA-dependent luciferase transcription, and compound activity is ultimately determined by measuring luminescence intensity.
(§2) • 1) Tango cell line from was digested from the culture dish respectively. After cell counting, the cells were plated at a density of 10,000 cells per well with […] into a white opaque 96-well plate (add 60 µL D'Hanks to the surrounding wells), and incubated overnight (20 h) in a 5% CO2 incubator at 37°C. The cell density will reach approximately 90% the next day. • 2) After 20 h, 30 µL of serially diluted compound solution was added to each well. The control group was supplemented with 30 µL F12K complete medium. Each group had three replicate wells. • 3) Samples were collected after 20 h of drug treatment.
(§3) (All compounds were tested at a final concentration of 45 µM, with 9 serial dilutions at 5-fold intervals. 1 µM BAF-312 was used as the positive control for S1PR1, and 25 µM BAF-312 was used as the positive control for S1PR4.

hS1P4 = molecular target: T2, hS1P4 (Homo sapiens, UniProt O95977); test: Tango β-arrestin recruitment luciferase assay, Tango-hS1P4-CHO; format: cell-based; conditions: β-arrestin recruitment; 20 h drug treatment; top 45 µM, 9 serial 5-fold dilutions; positive control 25 µM BAF-312; read-out: Tango-hS1P4-CHO EC50
T2 construct: expressed in transfected cells; host or cells: CHO
T2 sequence (O95977 1-384): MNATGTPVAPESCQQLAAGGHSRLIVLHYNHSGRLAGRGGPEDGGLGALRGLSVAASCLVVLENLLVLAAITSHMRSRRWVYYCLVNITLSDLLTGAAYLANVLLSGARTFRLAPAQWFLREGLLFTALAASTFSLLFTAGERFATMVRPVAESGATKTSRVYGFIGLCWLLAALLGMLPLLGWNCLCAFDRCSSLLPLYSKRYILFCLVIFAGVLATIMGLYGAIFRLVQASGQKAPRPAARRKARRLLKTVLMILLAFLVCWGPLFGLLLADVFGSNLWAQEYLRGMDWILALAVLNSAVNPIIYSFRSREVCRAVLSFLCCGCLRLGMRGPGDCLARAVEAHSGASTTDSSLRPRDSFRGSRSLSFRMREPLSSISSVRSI
Text: as §1, §2, §3

T1 sequence (P21453 whole entry): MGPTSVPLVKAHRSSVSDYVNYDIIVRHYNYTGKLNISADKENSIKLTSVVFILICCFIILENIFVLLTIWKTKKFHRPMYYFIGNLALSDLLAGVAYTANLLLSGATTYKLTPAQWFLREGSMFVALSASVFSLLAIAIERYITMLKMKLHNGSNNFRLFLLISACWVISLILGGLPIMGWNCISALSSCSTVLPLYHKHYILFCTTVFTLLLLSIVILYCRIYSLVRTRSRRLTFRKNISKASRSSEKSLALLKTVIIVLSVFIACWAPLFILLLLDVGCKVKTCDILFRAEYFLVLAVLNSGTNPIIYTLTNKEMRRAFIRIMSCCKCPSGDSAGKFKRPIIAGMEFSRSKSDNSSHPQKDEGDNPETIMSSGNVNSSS

C/C(=N\OCc1ccc(C2CCCCC2)c(C(F)(F)F)c1)c1ccc(CN2CCCC(C(=O)O)C2)cc1 (stereo not shown) [Compound 7]
EC50 (hS1P1): 508 nM | EC50 (hS1P4): 2500 nM

CCc1cc(/C(C)=N/OCc2ccc(-c3cnc(F)cn3)c(C)c2)ccc1CN1CCCC(C(=O)O)C1 (stereo not shown) [Compound 92, (E)-1-(2-ethyl-4-(1-(((3-methyl-4-(5-fluoropyrazin-2-yl)-benzyl)oxy)imino)ethyl)benzyl)piperidine-3-carboxylic acid]
EC50 (hS1P1): > 10000 nM | EC50 (hS1P4): > 10000 nM

CCc1cc(/C(C)=N/OCc2ccc(-c3ccoc3)c(C)c2)ccc1CN1CC[C@H](C(=O)O)C1 [Compound 36, (S, E)-1-(2-ethyl-4-(1-(((4-(furan-3-yl)-3-methylbenzyl)oxy)imino)ethyl)benzyl)pyrrolidine-3-carboxylic acid]
EC50 (hS1P1): 103 nM | EC50 (hS1P4): 1.67 nM

CCc1cc(/C(C)=N/OCc2ccc(C)c(C(F)(F)F)c2)ccc1CN1CC(C(=O)O)C1 [Compound 14, (E)-1-(2-ethyl-4-(1-((4-methyl-3-(trifluoromethyl)benzyl)oxy)imino)ethyl)azetidine-3-carboxylic acid]
EC50 (hS1P1): 5990 nM | EC50 (hS1P4): 3660 nM

CCc1cc(/C(C)=N/OCc2ccc(-c3ccncc3)c(C)c2)ccc1CN1CC[C@H](C(=O)O)C1 [Compound 37, (S, E)-1-(2-ethyl-4-(1-(((3-methyl-4-(pyridin-4-yl)benzyl)oxy)imino)ethyl)benzyl)pyrrolidine-3-carboxylic acid]
EC50 (hS1P1): 644 nM | EC50 (hS1P4): 15.6 nM

CCc1cc(/C(C)=N/OCc2ccc(-c3cncn3C)c(C)c2)ccc1CN1CC[C@H](C(=O)O)C1 [Compound 44]
EC50 (hS1P1): > 10000 nM

CCc1cc(/C(C)=N/OCc2ccc(-c3c(C)noc3C)c(C)c2)ccc1CN1CC[C@H](C(=O)O)C1 [Compound 45]
EC50 (hS1P1): > 10000 nM

CCc1cc(/C(C)=N/OCc2ccc(-c3ccccc3)c(C)c2)ccc1CN1CCCC(C(=O)O)C1 (stereo not shown) [Compound 33]
EC50 (hS1P1): 454 nM

CCc1cc(/C(C)=N/OCc2ccc(-c3cnc(F)cn3)cc2F)ccc1CN1CC[C@H](C(=O)O)C1 [Compound 87, (S, E)-1-(2-ethyl-4-(1-(((2-fluoro-4-(5-fluoropyrazin-2-yl)benzyl)oxy)imino)ethyl)benzyl)pyrrolidine-3-carboxylic acid]
EC50 (hS1P1): > 10000 nM | EC50 (hS1P4): 17.4 ± 0.39 nM

CCc1cc(/C(C)=N/OCc2ccc(C3CCCCC3)cc2)ccc1CN1CC(C(=O)O)C1 [Compound 3]
EC50 (hS1P1): 578 nM | EC50 (hS1P4): 2160 nM

CCc1cc(/C(C)=N/OCc2ccc(-c3cncnc3)cc2)ccc1CN1CC[C@H](C(=O)O)C1 [Compound 70, (S, E)-1-(2-ethyl-4-(1-(((4-(pyrimidin-5-yl)benzyl)oxy)imino)ethyl)benzyl)pyrrolidine-3-carboxylic acid]
EC50 (hS1P1): > 10000 nM

CCc1cc(/C(C)=N/OCc2ccc(-c3ccccc3)c(F)c2)ccc1CN1CC[C@H](C(=O)O)C1 [Compound 35, (S, E)-1-(2-ethyl-4-(1-(((2-fluoro-[1,1'-biphenyl]-4-yl)methoxy)imino)ethyl)benzyl)pyrrolidine-3-carboxylic acid]
EC50 (hS1P1): 104 nM | EC50 (hS1P4): 3.79 nM

C/C(=N\OCc1ccc(C2CCCCC2)c(C(F)(F)F)c1)c1ccc(CNC2CCCC(C(=O)O)C2)cc1 (stereo not shown) [Compound 9, (E)-3-((4-((1-((4-cyclohexyl-3-(trifluoromethyl)benzyl)oxy)imino)ethyl)benzyl)amino)cyclohexane-1-carboxylic acid]
EC50 (hS1P1): 455 nM | EC50 (hS1P4): 2350 nM

C/C(=N\OCc1ccc(C2CCCCC2)cc1)c1ccc(CN2CC(C(=O)O)C2)cc1 [Compound 1]
EC50 (hS1P1): 699 nM | EC50 (hS1P4): 2970 nM

CCc1cc(/C(C)=N/OCc2ccc3ccccc3c2)ccc1CN1CC(C(=O)O)C1 [Compound 15]
EC50 (hS1P1): 807 nM

CCc1cc(/C(C)=N/OCc2ccc(-c3ccns3)cc2)ccc1CN1CC[C@H](C(=O)O)C1 [Compound 75]
EC50 (hS1P1): > 10000 nM

CCc1cc(/C(C)=N/OCc2ccc(-c3cnn(C)c3)cc2)ccc1CN1CC[C@H](C(=O)O)C1 [Compound 55]
EC50 (hS1P1): > 10000 nM | EC50 (hS1P4): 269 nM

CCc1cc(/C(C)=N/OCc2ccc(-c3ccc(F)cc3)c(C)c2)ccc1CN1CC[C@H](C(=O)O)C1 [Compound 34, (S, E)-1-(2-ethyl-4-(1-(((4'-fluoro-2-methyl-[1,1'-biphenyl]-4-yl)methoxy)imino)ethyl)benzyl)pyrrolidine-3-carboxylic acid]
EC50 (hS1P1): 86.9 nM | EC50 (hS1P4): 2.4 nM

CCc1cc(/C(C)=N/OCc2ccc3c(c2)CCCC3)ccc1CN1CC(C(=O)O)C1 [Compound 23, (E)-1-(2-ethyl-4-(1-(((5,6,7,8-tetrahydronaphthalen-2-yl)methoxy)imino)ethyl)benzyl)azetidine-3-carboxylic acid]
EC50 (hS1P1): 560 nM

CCc1cc(/C(C)=N/OCc2ccc(-c3cncnc3)c(F)c2)ccc1CN1CC[C@H](C(=O)O)C1 [Compound 71, (S, E)-1-(2-ethyl-4-(1-(((3-fluoro-4-(pyrimidin-5-yl)benzyl)oxy)imino)ethyl)benzyl)pyrrolidine-3-carboxylic acid]
EC50 (hS1P1): > 10000 nM

CCc1cc(/C(C)=N/OCc2ccc(-c3cncnc3)c(C)c2)ccc1CN1CCC(C(=O)O)CC1 [Compound 82, (E)-1-(2-ethyl-4-(1-(((3-methyl-4-(pyrimidin-5-yl)benzyl)oxy)imino)ethyl)benzyl)piperidine-4-carboxylic acid]
EC50 (hS1P1): > 10000 nM | EC50 (hS1P4): 42.7 ± 2.28 nM

CCc1cc(/C(C)=N/OCc2ccc(-c3cnc(F)nc3)cc2F)ccc1CN1CC[C@H](C(=O)O)C1 [Compound 79, (S, E)-1-(2-ethyl-4-(1-(((2-fluoro-4-(2-fluoropyrimidin-5-yl)benzyl)oxy)imino)ethyl)benzyl)pyrrolidine-3-carboxylic acid]
EC50 (hS1P1): > 10000 nM

CCc1cc(/C(C)=N/OCc2ccc(-c3ccnnc3)c(C)c2)ccc1CN1CC[C@H](C(=O)O)C1 [Compound 84, (S, E)-1-(2-ethyl-4-(1-(((3-methyl-4-(pyridazin-4-yl)benzyl)oxy)imino)ethyl)benzyl)pyrrolidine-3-carboxylic acid]
EC50 (hS1P1): > 10000 nM

CCc1cc(/C(C)=N/OCc2c(F)cc(-c3ccc(F)nc3)cc2F)ccc1CN1CC[C@H](C(=O)O)C1 [Compound 86, (S, E)-1-(2-ethyl-4-(1-(((2,6-difluoro-4-(6-fluoropyridin-3-yl)benzyl)oxy)imino)ethyl)benzyl)pyrrolidine-3-carboxylic acid]
EC50 (hS1P1): > 10000 nM
